Assay results reported in ChEMBL document CHEMBL1201862, “PubChem BioAssay data set” (2004).
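48-hour exposure; five concentrations; linearly interpolated endpoints. GI50 = concentration required for 50% inhibition of growth.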 The source made the active and inactive calls. Cut-off read from the data, not from the text of the source: active = GI50 up to about 1.1 µM and inactive = higher.

Assays:
Experiment in all cases: NCI-60 cell line screen, 48 h
M19-MEL = system: M19-MEL
SK-MEL-28 = system: SK-MEL-28
HOP-92 = system: HOP-92
SK-OV-3 = system: SK-OV-3
A498 = system: A498
SN12C = system: SN12C
EKVX = system: EKVX
U-251 = system: U-251
SNB-78 = system: SNB-78
RXF 393 = system: RXF 393
MCF7 = system: MCF7
XF498 = system: XF498
CAKI-1 = system: CAKI-1
HCT-15 = system: HCT-15
TK-10 = system: TK-10
LXFL 529 = system: LXFL 529
M14 = system: M14
ACHN = system: ACHN
MDA-MB-231 = system: MDA-MB-231
786-0 = system: 786-0

## COc1cc(/C=C/c2ccc(OC)c(OC)c2)oc(=O)c1
M19-MEL
  GI50: > 250 µM (inactive)
SK-MEL-28
  GI50: > 250 µM (inactive)
HOP-92
  GI50: 122 µM (inactive)
SK-OV-3
  GI50: > 250 µM (inactive)
A498
  GI50: > 169 µM (inactive)
SN12C
  GI50: > 250 µM (inactive)
EKVX
  GI50: > 116 µM (inactive)
U-251
  GI50: 199 µM (inactive)
SNB-78
  GI50: 150 µM (inactive)
RXF 393
  GI50: 57 µM (inactive)
MCF7
  GI50: > 250 µM (inactive)
XF498
  GI50: > 250 µM (inactive)
CAKI-1
  GI50: > 92.3 µM (inactive)
HCT-15
  GI50: > 250 µM

## Cc1cccc2ns[s+]c12
TK-10
  GI50: > 100 µM (inactive)
SK-MEL-28
  GI50: > 100 µM (inactive)
HOP-92
  GI50: > 100 µM (inactive)
SK-OV-3
  GI50: > 100 µM (inactive)
LXFL 529
  GI50: 37.8 µM (inactive)
M14
  GI50: > 100 µM (inactive)
A498
  GI50: > 100 µM (inactive)
SN12C
  GI50: > 100 µM (inactive)
EKVX
  GI50: > 100 µM (inactive)
U-251
  GI50: 33.9 µM (inactive)
SNB-78
  GI50: > 100 µM (inactive)
ACHN
  GI50: > 100 µM (inactive)
CAKI-1
  GI50: > 100 µM (inactive)
HCT-15
  GI50: 19.4 µM

## O=NN(CCCl)C(=O)N[C@H]1CC[C@@H](O)CC1
M19-MEL
  GI50: 27.9 µM (inactive)
SK-MEL-28
  GI50: 25.3 µM (inactive)
HOP-92
  GI50: 8.43 µM (inactive)
SK-OV-3
  GI50: > 100 µM (inactive)
A498
  GI50: > 100 µM (inactive)
SN12C
  GI50: 36.6 µM (inactive)
EKVX
  GI50: 33.6 µM (inactive)
U-251
  GI50: 20.6 µM (inactive)
SNB-78
  GI50: 24.7 µM (inactive)
RXF 393
  GI50: 23.9 µM (inactive)
MCF7
  GI50: 31.6 µM (inactive)
XF498
  GI50: 21.5 µM (inactive)
CAKI-1
  GI50: 27.5 µM (inactive)
HCT-15
  GI50: 21.6 µM

## CCOC(=O)Cn1c(=O)c(C)cn(COCCO)c1=O
TK-10
  GI50: > 100 µM (inactive)
SK-MEL-28
  GI50: > 100 µM (inactive)
HOP-92
  GI50: > 100 µM (inactive)
M14
  GI50: > 100 µM (inactive)
A498
  GI50: > 100 µM (inactive)
SN12C
  GI50: > 100 µM (inactive)
EKVX
  GI50: > 100 µM (inactive)
U-251
  GI50: > 100 µM (inactive)
MDA-MB-231
  GI50: > 100 µM (inactive)
RXF 393
  GI50: > 100 µM (inactive)
ACHN
  GI50: > 100 µM (inactive)
MCF7
  GI50: > 100 µM (inactive)
CAKI-1
  GI50: > 100 µM (inactive)

## CCN1CCCC(NCc2c3ccccc3c(CNC3CCCN(CC)C3)c3ccccc23)C1 (configuration not stated)
M19-MEL
  GI50: 7.45 µM (inactive)
SK-MEL-28
  GI50: 11.8 µM (inactive)
HOP-92
  GI50: 11.1 µM (inactive)
SK-OV-3
  GI50: 10.1 µM (inactive)
A498
  GI50: 12.6 µM (inactive)
SN12C
  GI50: 8.91 µM (inactive)
EKVX
  GI50: 17.3 µM (inactive)
U-251
  GI50: 11.8 µM (inactive)
SNB-78
  GI50: 22.3 µM (inactive)
RXF 393
  GI50: 3.48 µM (inactive)
MCF7
  GI50: 2.86 µM (inactive)
XF498
  GI50: 20.5 µM (inactive)
CAKI-1
  GI50: 16.1 µM (inactive)
HCT-15
  GI50: 12.5 µM

## CN(C)CC(C)(C)/C(=N\Nc1ccccc1)c1ccccc1
TK-10
  GI50: 22.7 µM (inactive)
M19-MEL
  GI50: 82.2 µM (inactive)
SK-MEL-28
  GI50: 39.9 µM (inactive)
SK-OV-3
  GI50: 21.8 µM (inactive)
LXFL 529
  GI50: 18.7 µM (inactive)
M14
  GI50: 21.9 µM (inactive)
A498
  GI50: 82.8 µM (inactive)
SN12C
  GI50: 48.8 µM (inactive)
EKVX
  GI50: 47.2 µM (inactive)
U-251
  GI50: 37.4 µM (inactive)
SNB-78
  GI50: 70.1 µM (inactive)
786-0
  GI50: 45.3 µM (inactive)
RXF 393
  GI50: 37.3 µM (inactive)
ACHN
  GI50: 20.1 µM (inactive)
HCT-15
  GI50: 16.2 µM

## CCOC(=O)C1=C(C)N2CCCOC2(C)C(C(=O)OC)C1c1cccc([N+](=O)[O-])c1 (configuration not stated)
TK-10
  GI50: > 100 µM (inactive)
M19-MEL
  GI50: > 100 µM (inactive)
SK-MEL-28
  GI50: > 100 µM (inactive)
HOP-92
  GI50: > 100 µM (inactive)
LXFL 529
  GI50: 45.7 µM (inactive)
M14
  GI50: > 100 µM (inactive)
EKVX
  GI50: 50 µM (inactive)
RXF 393
  GI50: > 100 µM (inactive)
ACHN
  GI50: 71.6 µM (inactive)
CAKI-1
  GI50: 64.9 µM (inactive)

## Cc1ccc(C2COc3cc(O)c(O)cc3C2)cc1 (configuration not stated)
M19-MEL
  GI50: 19 µM (inactive)
SK-MEL-28
  GI50: 13.1 µM (inactive)
HOP-92
  GI50: 14.4 µM (inactive)
SK-OV-3
  GI50: 139 µM (inactive)
A498
  GI50: 86.7 µM (inactive)
SN12C
  GI50: 20.7 µM (inactive)
EKVX
  GI50: 20.4 µM (inactive)
U-251
  GI50: 17.7 µM (inactive)
SNB-78
  GI50: 31.6 µM (inactive)
RXF 393
  GI50: 11.3 µM (inactive)
MCF7
  GI50: 25.9 µM (inactive)
XF498
  GI50: 9.12 µM (inactive)
CAKI-1
  GI50: 15.9 µM (inactive)
HCT-15
  GI50: 15 µM

## CC(C)NC(=O)OCc1c(CO)c2c(n1C)-c1ccccc1CC2
M19-MEL
  GI50: 23.9 µM (inactive)
SK-MEL-28
  GI50: 25.9 µM (inactive)
HOP-92
  GI50: 18.2 µM (inactive)
SK-OV-3
  GI50: 55.1 µM (inactive)
A498
  GI50: 55.5 µM (inactive)
SN12C
  GI50: 24.3 µM (inactive)
EKVX
  GI50: 69.2 µM (inactive)
U-251
  GI50: 27 µM (inactive)
SNB-78
  GI50: 33.8 µM (inactive)
RXF 393
  GI50: 23.5 µM (inactive)
MCF7
  GI50: 37.6 µM (inactive)
XF498
  GI50: 14.2 µM (inactive)
CAKI-1
  GI50: 15.8 µM (inactive)
HCT-15
  GI50: 23.3 µM
